Structures are written as SMILES. pIC50: −log10 of the molar value.

One data set has as its target T1, IKAROS (Homo sapiens, UniProt Q13422+Q96SW2).
T1 construct: Whole cell extracts were prepared using a radioimmunoprecipitation assay (RIPA) buffer; endogenous in cells; host or cells: MV-4-11
Put plainly: Protein degradation assay (Western blot) in MV-4-11 cells: IKAROS. Type of data set: cell-based. The conditions noted are these: 6-8 h, compound concentration 0.1 μM. On the procedure:
(§1) MV-4-11 cells were grown in RPMI 1640 media supplemented with 10% fetal bovine serum, streptomycin, and penicillin. The cells were cultured at approximately 10^6 cells per mL and incubated in DMSO or a compound for 6-8 h. Whole cell extracts were prepared using a radioimmunoprecipitation assay (RIPA) buffer. Briefly, 3×10^6 cells were washed once in PBS, and the cell pellets were resuspended in the RIPA buffer and incubated for 15 min on ice. Cells debris was removed by centrifugation and the cleared whole cell lysates were transferred to new tubes for further analysis.
(§2) For Western blot analysis, whole cell protein extracts were separated on 4-12% SDS-polyacrylamide gels, transferred to nitrocellulose, and probed with primary antibodies. Membranes were subsequently washed and probed with IRDYE® secondary antibodies. The signal was detected using an ODYSSEY® Imaging System.
(§3) The following antibodies were used in the assays described herein: anti-eRF3/GSPT1: Abcam, ab126090 (Cambridge, Mass.); anti-Ikaros: Abcam, ab191394 (Cambridge, Mass.); anti-CK1α: Abcam, ab108296 (Cambridge, Mass.); β-actin (8H10D10) mouse monoclonal antibody: Cell Signaling Technology, #3700 (Danvers, Mass.); IRDYE® 680RD goat anti-rabbit antibody: LI-COR, 926-68071 (Lincoln, Nebr.); and IRDYE® 800CW goat anti-mouse antibody: LI-COR, 926-32210 (Lincoln, Nebr.).
(§4) The protein degradation results are summarized in Table 1, wherein A represents a value no less than 80%, B represents a value less than 80% but no less than 50%, C represents a value less than 50% but no less than 25%, and D represents a value less than 25% protein degradation at a compound concentration of 0.1 μM.

The next data set concerns IL-1β. The data set is described as follows: Cytokine modulation assay, LPS-induced PBMCs or CD14+ monocytes: IL-1β. Type of data set: cell-based. The conditions noted are these: 100 ng/mL LPS 18-24 h; for inhibition at 0.1 µM: 0.1 μM compound; for inhibition at 1 µM: 1 μM compound. Here is the method:
(§5) Frozen primary blood mononuclear cells (PBMCs) or frozen CD14+ mobilized peripheral blood monocytes were quick thawed, washed once with RPMI-1640 (10% FBS/1% Pen-Strep), and plated in 96 well plates at 200,000 cells per well. The cells were pretreated with DMSO only or with a compound for 1 h and then induced with 100 ng/mL lipopolysaccharide (LPS) for 18-24 h. The supernatant was analyzed for IL-1β, IL-6, and TNFα using Meso Scale assays. The negative control wells were treated with DMSO.

The next data set deals with T2, GSPT1 (Homo sapiens, UniProt P15170+Q96SW2).
T2 construct: Whole cell extracts were prepared using a radioimmunoprecipitation assay (RIPA) buffer; endogenous in cells; host or cells: MV-4-11
T2 sequence (P15170 whole entry): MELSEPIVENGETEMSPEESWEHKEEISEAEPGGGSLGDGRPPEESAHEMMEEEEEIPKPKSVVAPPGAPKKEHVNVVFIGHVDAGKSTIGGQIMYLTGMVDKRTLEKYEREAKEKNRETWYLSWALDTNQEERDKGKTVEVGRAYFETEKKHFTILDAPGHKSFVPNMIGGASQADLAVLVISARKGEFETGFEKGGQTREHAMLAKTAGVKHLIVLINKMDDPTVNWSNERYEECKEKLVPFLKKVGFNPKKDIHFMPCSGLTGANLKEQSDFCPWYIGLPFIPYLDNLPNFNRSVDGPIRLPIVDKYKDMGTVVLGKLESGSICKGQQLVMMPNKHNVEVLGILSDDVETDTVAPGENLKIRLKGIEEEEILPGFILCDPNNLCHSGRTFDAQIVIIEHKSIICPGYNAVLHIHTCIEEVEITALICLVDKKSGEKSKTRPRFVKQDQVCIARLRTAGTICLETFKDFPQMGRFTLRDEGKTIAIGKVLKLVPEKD
T2 sequence (Q96SW2 whole entry): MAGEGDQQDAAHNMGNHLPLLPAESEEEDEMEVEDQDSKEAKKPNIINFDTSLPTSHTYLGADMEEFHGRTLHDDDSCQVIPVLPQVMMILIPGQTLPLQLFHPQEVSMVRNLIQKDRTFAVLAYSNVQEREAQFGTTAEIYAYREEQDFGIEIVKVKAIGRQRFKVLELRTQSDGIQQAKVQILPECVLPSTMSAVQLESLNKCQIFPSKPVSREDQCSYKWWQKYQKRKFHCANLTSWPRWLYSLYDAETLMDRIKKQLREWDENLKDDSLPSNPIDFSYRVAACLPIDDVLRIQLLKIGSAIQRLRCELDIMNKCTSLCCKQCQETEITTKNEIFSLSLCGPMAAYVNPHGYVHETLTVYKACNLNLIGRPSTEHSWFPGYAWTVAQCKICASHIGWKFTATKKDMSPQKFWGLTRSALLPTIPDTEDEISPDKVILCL
T2 sequence (Q16531 whole entry partner): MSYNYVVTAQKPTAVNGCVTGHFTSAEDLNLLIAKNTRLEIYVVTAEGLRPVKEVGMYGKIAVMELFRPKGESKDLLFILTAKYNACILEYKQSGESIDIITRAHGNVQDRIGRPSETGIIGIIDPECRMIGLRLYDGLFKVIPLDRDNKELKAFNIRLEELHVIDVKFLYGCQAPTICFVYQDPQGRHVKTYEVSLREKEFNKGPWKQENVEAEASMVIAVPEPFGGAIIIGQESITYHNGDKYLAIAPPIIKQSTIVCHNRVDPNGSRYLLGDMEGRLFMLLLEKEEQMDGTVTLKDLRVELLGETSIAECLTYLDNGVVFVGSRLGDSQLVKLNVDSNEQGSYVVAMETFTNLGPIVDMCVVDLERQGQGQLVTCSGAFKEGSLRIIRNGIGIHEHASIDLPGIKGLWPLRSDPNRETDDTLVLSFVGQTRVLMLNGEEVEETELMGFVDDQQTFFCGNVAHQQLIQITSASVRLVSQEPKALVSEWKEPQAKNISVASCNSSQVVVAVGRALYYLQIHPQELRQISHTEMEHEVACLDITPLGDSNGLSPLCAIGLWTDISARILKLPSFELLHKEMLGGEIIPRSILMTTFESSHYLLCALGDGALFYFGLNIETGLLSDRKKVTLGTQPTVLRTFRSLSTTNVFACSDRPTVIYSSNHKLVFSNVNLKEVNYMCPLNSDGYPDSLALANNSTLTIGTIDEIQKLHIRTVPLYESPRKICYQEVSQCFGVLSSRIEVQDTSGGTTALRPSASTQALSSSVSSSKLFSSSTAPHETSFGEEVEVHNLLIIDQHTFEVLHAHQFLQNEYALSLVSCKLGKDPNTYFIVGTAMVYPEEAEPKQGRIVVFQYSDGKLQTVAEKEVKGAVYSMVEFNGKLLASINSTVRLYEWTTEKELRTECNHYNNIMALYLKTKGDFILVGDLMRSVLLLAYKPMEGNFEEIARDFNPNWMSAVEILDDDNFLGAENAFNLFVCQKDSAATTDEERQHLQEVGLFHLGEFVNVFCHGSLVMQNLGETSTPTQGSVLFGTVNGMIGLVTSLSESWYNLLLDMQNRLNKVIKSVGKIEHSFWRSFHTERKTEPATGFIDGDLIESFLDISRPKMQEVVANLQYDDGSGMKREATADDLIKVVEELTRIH
Put plainly: Protein degradation assay (Western blot) in MV-4-11 cells: GSPT1. Type of data set: cell-based. The conditions noted are these: 6-8 h, compound concentration 0.1 μM. Here is the method:
as §1, §2, §3, §4

Another data set has as its system TNF-α. Put plainly: Cytokine modulation assay, LPS-induced PBMCs or CD14+ monocytes: TNFα. Type of data set: cell-based. The conditions noted are these: 100 ng/mL LPS 18-24 h; for inhibition at 0.1 µM: 0.1 μM compound; for inhibition at 1 µM: 1 μM compound. On the procedure:
as §5

The test system of a further data set is MOLM-13 cells. The data set is described as follows: MOLM-13 cell viability assay (CellTiter-Glo). Type of data set: cell-based. The conditions noted are these: 3 days, concentration of 1 μM; for cytotoxicity at 1 µM: Homo sapiens, MOLM-13, 72 h, read-out: Antiproliferative Activity (inhibition, MOLM-13 cell viability). In short, it runs like this:
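Luminescent ATP read-out (CellTiter-Glo, 10 min with shaking) after 3-day compound or DMSO exposure at 37° C, 5% CO2. Cells plated at 2,500/well in RPMI 1640 plus 10% FBS.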

The next data set deals with T3, CK1α (Homo sapiens, UniProt P48729+Q96SW2).
T3 construct: Whole cell extracts were prepared using a radioimmunoprecipitation assay (RIPA) buffer; endogenous in cells; host or cells: MV-4-11
T3 sequence (P48729 whole entry): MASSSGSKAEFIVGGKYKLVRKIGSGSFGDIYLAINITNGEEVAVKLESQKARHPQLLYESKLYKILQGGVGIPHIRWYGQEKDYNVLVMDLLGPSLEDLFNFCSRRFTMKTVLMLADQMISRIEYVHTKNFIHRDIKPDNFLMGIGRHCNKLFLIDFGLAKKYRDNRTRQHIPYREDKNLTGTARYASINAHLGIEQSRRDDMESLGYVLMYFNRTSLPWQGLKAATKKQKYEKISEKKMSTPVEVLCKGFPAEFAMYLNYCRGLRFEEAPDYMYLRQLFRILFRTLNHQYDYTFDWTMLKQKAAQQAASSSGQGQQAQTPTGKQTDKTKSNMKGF
T3 sequence (Q96SW2 whole entry): as the sequence (Q96SW2 whole entry) above
T3 sequence (Q16531 whole entry partner): as the sequence (Q16531 whole entry partner) above
The data set is described as follows: Protein degradation assay (Western blot) in MV-4-11 cells: CK1α. The conditions noted are these: 6-8 h, compound concentration 0.1 μM. The format is cell-based. Here is the method:
as §1, §2, §3, §4

Another data set concerns THLE-2 cells. Put plainly: THLE-2 cell viability assay (CellTiter-Glo). Type of data set: cell-based. As to conditions: Homo sapiens, 72 h, 3 days. Here is the method: THLE-2 cells were cultured using BEGM™ BULLETKIT™ supplemented with 10% fetal bovine serum, streptomycin, and penicillin. The cells were plated in white walled 96-well plates at 5,000 cells/well. After the cells were incubated in DMSO (control) or a compound for 3 days at 37° C. and 5% CO2, 100 μL of CELLTITER-GLO® (CTG) was added to each well. Following a 10 minutes incubation with shaking, luminescence was measured using an ENVISION® Multimode plate reader. In this example, compound II-1 was compared to reference compound A: […]

The next data set relates to IL-2. Put plainly: IL-2 analysis in anti-CD3 stimulated PBMCs. The format is cell-based, human. As to conditions: 0.01 μM compound, PBMCs on anti-CD3 coated plates, 24 h. On the procedure: For the IL-2 analysis, 96 well plates were precoated with 1 μg/mL anti-human CD3 antibody (OKT3, eBioscience Inc., San Diego, Calif.). After washed with PBS, the compound was added (50 μL/well), followed by addition of PBMCs diluted at 3-4 million cells/mL (150 μL/well). The plates were incubated for 24 h and the supernatants were collected for IL-2 analysis. IL-2 activity was measured as fold difference from the DMSO control. At a concentration of 0.01 μM, compounds I-1 and I-3 stimulated IL-2 production with 3.7 and 3.9 fold change, respectively, over the DMSO control.

The test system of another data set is IL-6. The data set is described as follows: Cytokine modulation assay, LPS-induced PBMCs or CD14+ monocytes: IL-6. The format is cell-based. The conditions noted are these: 0.1 μM compound, 100 ng/mL LPS 18-24 h. On the procedure:
as §5

T1 sequence (Q13422 whole entry): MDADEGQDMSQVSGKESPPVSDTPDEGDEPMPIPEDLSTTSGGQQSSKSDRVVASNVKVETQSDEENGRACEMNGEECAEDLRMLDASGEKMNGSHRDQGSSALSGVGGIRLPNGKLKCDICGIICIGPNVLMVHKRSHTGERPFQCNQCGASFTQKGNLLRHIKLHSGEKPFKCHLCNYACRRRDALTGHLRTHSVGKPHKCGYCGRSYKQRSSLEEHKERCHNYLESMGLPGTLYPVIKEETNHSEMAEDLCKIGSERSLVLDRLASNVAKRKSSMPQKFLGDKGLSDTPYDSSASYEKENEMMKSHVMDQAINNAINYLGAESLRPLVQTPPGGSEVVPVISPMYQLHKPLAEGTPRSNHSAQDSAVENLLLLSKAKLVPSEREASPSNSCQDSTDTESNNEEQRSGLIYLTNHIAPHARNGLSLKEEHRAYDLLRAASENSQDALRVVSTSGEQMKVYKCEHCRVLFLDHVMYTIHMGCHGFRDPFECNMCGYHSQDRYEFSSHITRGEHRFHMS
T1 sequence (Q96SW2 whole entry): as the sequence (Q96SW2 whole entry) above
T1 sequence (Q16531 whole entry partner): as the sequence (Q16531 whole entry partner) above

For the compound `CC(C)c1ccc(C(=O)C(=O)NCc2scc3c2CN(C2CCC(=O)NC2=O)C3=O)s1` (stereo not drawn) [Compound I-4, N-((5-(2,6-dioxopiperidin-3-yl)-4-oxo-5,6-dihydro-4H-thieno[3,4-c]pyrrol-1-yl)methyl)-2-(5-isopropylthiophen-2-yl)-2-oxoacetamide], at IKAROS, the “Protein Degradation IKAROS” value was “A (a value no less than 80%)”. In the data set with IL-1β, this compound gave an inhibition at 0.1 µM above 80% and an inhibition at 1 µM above 80%. For the same compound, on GSPT1, the “Protein Degradation GSPT1” value is “C (a value less than 50% but no less than 25%)”. In the data set with TNF-α, this compound had an inhibition at 0.1 µM above 80% and an inhibition at 1 µM above 80%. The cytotoxicity at 1 µM in the data set on MOLM-13 cells was above 80%.

Take `CC(C)(C)c1ccc(C(=O)C(=O)NCc2ccc3c(c2)CN(C2CCC(=O)NC2=O)C3=O)cc1` (stereo not drawn) [Compound I-2, 2-(4-(tert-butyl)phenyl)-N-((2-(2,6-dioxopiperidin-3-yl)-1-oxoisoindolin-5-yl)methyl)-2-oxoacetamide]: the “Protein Degradation IKAROS” value on IKAROS was “A (a value no less than 80%)”. Moreover, the “Protein Degradation GSPT1” value on GSPT1 is given as “A (a value no less than 80%)”. The “Protein Degradation CK1α” value on CK1α was “B (a value less than 80% but no less than 50%)”. In addition, the cytotoxicity at 1 µM with MOLM-13 cells was above 80%.

In the data set on THLE-2 cells, `Cc1ccc(NC(=O)NCc2cc3c(s2)C(=O)N(C2CCC(=O)NC2=O)C3)cc1Cl` (stereo not drawn) [reference compound A, reference compound] gave a pIC50 of 6.10.

Turning to `O=C1CCC(N2Cc3c(csc3CNC(=O)C(=O)c3ccc(C4(C(F)(F)F)CC4)cc3)C2=O)C(=O)N1` (stereo not drawn) [Compound I-3, N-((5-(2,6-dioxopiperidin-3-yl)-4-oxo-5,6-dihydro-4H-thieno[3,4-c]pyrrol-1-yl)methyl)-2-oxo-2-(4-(1-(trifluoromethyl)cyclopropyl)phenyl)acetamide], on IKAROS, the “Protein Degradation IKAROS” value was “A (a value no less than 80%)”. The inhibition at 0.1 µM was above 80% in the data set with IL-1β, above 80% with TNF-α and 25 to 50% in the data set on IL-6. The inhibition at 1 µM in the data set on IL-1β and with TNF-α was above 80% each time. Besides, on GSPT1, the “Protein Degradation GSPT1” value is “B (a value less than 80% but no less than 50%)”. For the same compound, at CK1α, the “Protein Degradation CK1α” value is recorded as “A (a value no less than 80%)”. In addition, the cytotoxicity at 1 µM in the data set with MOLM-13 cells was above 80%. Moreover, in the data set on IL-2, the “IL-2 production, fold change over the DMSO control” value is 3.9 fold.

For the compound `CC(C)(C)c1ccc(C(=O)C(=O)NCc2scc3c2CN(C2CCC(=O)NC2=O)C3=O)cc1` (stereo not drawn) [Compound I-1, 2-(4-(tert-butyl)phenyl)-N-((5-(2,6-dioxopiperidin-3-yl)-4-oxo-5,6-dihydro-4H-thieno[3,4-c]pyrrol-1-yl)methyl)-2-oxoacetamide], on IKAROS, the “Protein Degradation IKAROS” value was “A (a value no less than 80%)”. Also, the inhibition at 0.1 µM in the data set with IL-1β is above 80%; in the data set with TNF-α, above 80%; in the data set with IL-6 it was 50 to 80%. Besides, on GSPT1, the “Protein Degradation GSPT1” value is reported as “B (a value less than 80% but no less than 50%)”. Also, the “Protein Degradation CK1α” value at CK1α was “B (a value less than 80% but no less than 50%)”. Further, in the data set on MOLM-13 cells, the “Antiproliferative Activity (inhibition, MOLM-13 cell viability)” value was “A (a value no less than 80%)”. Moreover, in the data set on IL-2, the “IL-2 production, fold change over the DMSO control” value came to 3.7 fold.

Take `O=C1CCC(N2Cc3cc(CNC(=O)C(=O)c4ccc(C5(C(F)(F)F)CC5)cc4)ccc3C2=O)C(=O)N1` (stereo not drawn) [Compound I-5, N-((2-(2,6-dioxopiperidin-3-yl)-1-oxoisoindolin-5-yl)methyl)-2-oxo-2-(4-(1-(trifluoromethyl)cyclopropyl)phenyl)acetamide]: the “Protein Degradation IKAROS” value on IKAROS is listed as “A (a value no less than 80%)”. The “Protein Degradation GSPT1” value at GSPT1 is recorded as “A (a value no less than 80%)”. On CK1α, the “Protein Degradation CK1α” value is “C (a value less than 50% but no less than 25%)”. Also, the cytotoxicity at 1 µM in the data set on MOLM-13 cells was above 80%.

On to `Cc1ccc(NC(=O)NCc2cc3c(s2)C(=O)N(C2CCC(=O)NC2=O)C3)cc1N(C)C` (stereo not drawn) [II-1, 1-(3-(dimethylamino)-4-methylphenyl)-3-((5-(2,6-dioxopiperidin-3-yl)-6-oxo-5,6-dihydro-4H-thieno[2,3-c]pyrrol-2-yl)methyl)urea], for which the inhibition at 1 µM in the data set on IL-1β and in the data set with TNF-α was 25 to 50% throughout. Also, the “Protein Degradation GSPT1” value on GSPT1 is listed as “B (a value less than 80% but no less than 50%)”. Further, the negative-log IC50 (pIC50) in the data set on THLE-2 cells is 5.05. Besides, in the data set on MOLM-13 cells, the cytotoxicity at 1 µM was above 80%.

The record behind these values is patent US11345712B2, “Protein-targeting compounds and pharmaceutical compositions thereof, and their therapeutic applications” (BioTheryX, Inc., priority 2019, dated 2022).
